What all share (type): cell-based, Pseudomonas aeruginosa
Experiment [1] relates to PA14 biofilms. The experiment can be described thus: Impedance analysis (xCELLigence cell index) of PA14 biofilm growth rate / biofilm formation. As for the experimental part: The biomass Pseudomonas aeruginosa had been measured as an exemplary biomass. Eventually also other strains can be analyzed. The 96 E-Plate had been used for a measuring time of 43 hours. The fluid culture medium LB had been introduced into the receptacles together with wild type (WT) PA14, ΔpelA deletion mutant or ΔpqsA, respectively.
A significant linear reduction of the negative cell index occurs after about 35 hours and more preferably in the time frame of the 37 hours to 42 hours. Within this time frame of 37 hours to 42 hours, the directional cell index RK=(cell index[t2]−cell index[t1])/(t2−t1) is decreasing. Thus, for such a short time frame, the value of the cell index change provides the directional cell index RK, which corresponds to the linear relation between the capacitance and the reactance having the general form of a straight line. Optionally, and in particular in case of evaluating longer time frames, the growth rate of biofilm can be calculated as function of the natural logarithm of the cell index, e.g. by the formula RK=ln(cell index[t2]−cell index[t1])/(t2−t1).
The impedance method has also been used to study the effect of antibiotics on biofilm formation of P. aeruginosa PA14. The results of the impact of ciprofloxacin (A), tobramycin (B), and meropenem (C) on biofilm formation of PA14 are shown in FIGS. 8 to 10. As examples, the antibiotics ciprofloxacin (FIGS. 8a)-c)), tobramycin (FIGS. 9a)-c)) and meropenem (FIGS. 10a)-c)) have been tested. All three antibiotics changed the impedance curves in a concentration-dependent manner, indicating effects on biofilm formation.
The effect on impedance was quantified by three parameters at varying antibiotic concentrations:
The first parameter is the time of onset of a linear decrease of the cell index, (FIGS. 8a), 9a) and 10a)).
The second parameter is the duration of a linear decrease of the cell index. This duration was determined by a linear trendline that was fitted to the data with an r^2 value of 0.97 or higher. In the graphs of FIGS. 8a), 9a) and 10a), the black vertical bars represent the time period over which the biofilm formation rate was measured to be steady, based on a straight line assigned with an r^2 of at least 0.97 (n=3 or 4).
The third parameter was the cell index slope during that time period (FIGS. 8b), 9b) and 10b)). These graphs show the concentration dependency of the biofilm formation expressed in the slope/h of the cell index (n=3 or 4).

Experiment [2] deals with PA14. The experiment can be described thus: Planktonic growth curves of PA14 by OD600 (control experiment).
From the text: OD600 indicates the absorbance, or optical density, of a sample measured at a wavelength of 600 nm and indicates the concentration of cells in a liquid.
For experiment [3], the system named is PA14 biofilms. The experiment can be described thus: Crystal violet analysis of PA14 biofilms, absorption at 620 nm. As to conditions: added to wild type WT PA14, LB medium, 96-Well-Plate, after 43 hours, compared to WT alone. As to the method:
FIG. 5—Diagram of PA 14 biofilms determined after 43 hours with crystal violet by monitoring absorption at 620 nm;
FIG. 5 is a diagram of various types of PA14 biofilms measured by use of the 96-Well-Plate after 43 hours by use of the fluid culture medium LB with crystal violet analysis by monitoring absorption at 620 nm.

Consider `C[C@@H](O)[C@H]1C(=O)N2C(C(=O)O)=C(S[C@@H]3CN[C@H](C(=O)N(C)C)C3)[C@H](C)[C@H]12` [meropenem], for which the “induction of biofilm formation (cell index slope)” value in experiment [1] (0.5 μg/ml) is given as “this effect vanished”. Also, in experiment [1] (concentrations between 0.063 and 0.25 μg/ml), the “cell index slope (biofilm formation)” value is “induced biofilm formation”.

On to `NC[C@H]1O[C@H](O[C@H]2[C@H](O)[C@@H](O[C@H]3O[C@H](CO)[C@@H](O)[C@H](N)[C@H]3O)[C@H](N)C[C@@H]2N)[C@H](N)C[C@@H]1O` [tobramycin], for which, in experiment [1] (at increasing concentrations), the “cell index slope (biofilm formation)” value is “shallower decline”.

With `O=C(O)c1cn(C2CC2)c2cc(N3CCNCC3)c(F)cc2c1=O` [ciprofloxacin], the planktonic growth entry in experiment [2] (0.13 μg/mL) is “not impaired”; in experiment [2] (0.25 μg/mL), “still possible”. Also, the “impedance curve reflecting biofilm formation” value in experiment [1] (0.13 μg/mL) is reported as “clearly changed the impedance curve”. Further, in experiment [1] (0.25 μg/mL), the steady biofilm formation entry is “not observed anymore”. In addition, the “cell index slope (biofilm formation)” value in experiment [1] (at increasing concentrations) is reported as “shallower decline”.

For the molecule `N=C(N)NCCC[C@H](N)C(=O)O` [L-Arg, arginine], the “directional cell index RK” value in experiment [1] (0.4% or 0.8% L-Arg added to wild type WT, evaluation time 37 to 42 hours) is listed as “about −0.004 /h”. For the same molecule, the “reduction of the biofilm growth rate” value in experiment [1] (0.4% or 0.8% L-Arg, PA14 WT, LB, evaluation time 37 to 42 hours) is “about ½”. Besides, in experiment [3], the “growth of biofilm (crystal violet)” value was “inhibits the growth of biofilm”.
